Test results from patent US20100015164A1, “Compositions and Methods for Modulating Osteoblast Cell Differentiation and Bone Generation Through HIF-1a” (THE UAB RESEARCH FOUNDATION, priority 2005, published 2010).
“Also recorded” adds a separate entry of the source.

What was measured:
HIF-1α [1] = details: in vitro and in vivo, published studies; cited from earlier work
HIF-1α [2] = test: Western blotting of nuclear protein for HIF-1α in primary osteoblasts exposed to cobalt; assay type: cell-based, mouse; details: primary osteoblast cultures; 5, 10, or 50 ng/ml cobalt; 0, 3, 6, 12, and 24 hours of exposure
From the text: The class of PHDs acting on HIF-1α require oxygen, iron, and 2-oxyglutarate as co-factors. Small molecules that block these enzymes are iron chelators, such as cobalt and desferrioxamine, or 2-oxyglutarate analogs such as L-mimosinc and 3,4 DHB, and DMOG. A schematic of the PHD enzyme and the structures of the 2-oxyglutarate analogs is reproduced in FIG. 5. A number of previous studies have shown an increase of VEGF and other HIF-1α target genes in cells treated with the small molecule PHD inhibitors selected here. Because the effects of the PHD inhibiting agents have not been tested in primary osteoblasts, studies were performed to evaluate their ability to increase HIF-1α. Osteoblasts were grown to near confluence, and then exposed to varying concentrations of cobalt chloride. At time zero, and after 3, 6, 12, and 24 hours of exposure, the cells were harvested and nuclear protein was extracted.

VEGF = VEGF mRNA expression by real time PCR in osteoblasts exposed to cobalt chloride; assay type: cell-based, mouse; details: 5, 10, or 50 ng/mL cobalt chloride, 3, 12, or 24 hours
Procedure: The osteoblasts were exposed to 5, 10, or 50 ng/mL of cobalt chloride. After, 3, 12, or 24 hours, cells were harvested and mRNA was collected. Real time PCR was performed with β-actin as control. […] Additionally, they lend support to the approach of using VEGF upregulation as assessed by real time PCR as a surrogate for HIF-1α activation in initial screening rather than the more time consuming approach of western blotting for HIF-1α.

Row | Structure (SMILES) | HIF-1α activation (HIF-1α [1]) | nuclear HIF-1α (Western blot of nuclear extracts) (HIF-1α [2]) | VEGF mRNA expression (real time PCR, β-actin as control) (VEGF) | VEGF mRNA expression (real time PCR, β-actin as control) (VEGF; listed as cobalt)
1 | CC(=O)N(O)CCCCCNC(=O)CCC(=O)N(O)CCCCCNC(=O)CCC(=O)N(O)CCCCCN [desferrioxamine] | increase HIF-1α activation in vitro and in vivo | – | – | –
2 | [Cl][Co][Cl] [cobalt chloride] | increase HIF-1α activation in vitro and in vivo | time and dose dependent increase in nuclear HIF-1α; also recorded: increased nuclear accumulation after cobalt treatment at all doses | Marked upregulation of VEGF expression | Marked upregulation of VEGF was seen after 12 and 24 hours
